Results: paper PMC9307114, “Discovery and SAR analysis of phenylbenzo[d][1,3]dioxole-based proprotein convertase subtilisin/kexin type 9 inhibitors” (Journal of Enzyme Inhibition and Medicinal Chemistry, 2022)

How the values were obtained:
HepG2 cells = experiment: MTT assay on HepG2 cells; assay type: cell-based; conditions: Homo sapiens, mean of three experiments, read-out: HepG2 percentage inhibitory rate
PCSK9/LDLR PPI = PCSK9/LDLR PPI (Homo sapiens, UniProt Q8NBP7); experiment: PCSK9-LDLR TR-FRET assay (PCSK9/LDLR PPI inhibitory screening); assay type: binding; conditions: for inhibition at 10 µM: mean of three experiments, read-out: PCSK9 percentage inhibitory rate
Protocol: The PCSK9/LDLR time-resolved fluorescence resonance energy transfer (TR-FRET) assay was performed to evaluate the activity of synthesised compounds in inhibition of PCSK9-LDLR binding. The A series compounds were firstly synthesised for the PCSK9/LDLR PPI inhibitory test. […] Therefore, a group of A12 derivatives (B series) were synthesised with 4-chlorobenzyl substituted in the amino group and various substitutions introduced to the carboxylic group. […] To confirm whether the 4-chloromethyl group is essential for the PPI inhibitory activity, a new series of compounds (C series) were synthesised with the 4-chloromethyl group replaced by 4-methoxymethyl moiety. The inhibitory activity was observed, most likely resulting from the 4-methoxymethyl substitution (Table 3).
The compounds were dissolved in 100% DMSO; then 2 µL of the dilution was added to a 20 µL of reaction to keep […] in all of reactions. The binding reaction was conducted at room temperature. The reaction mixture in assay buffer contains PCSK9, the indicated amount of the inhibitor, ligand LDLR, and the reaction dyes. The reaction mixture was incubated for 120 min before detection of the TR-FRET signal. Fluorescence signals for both the donor and acceptor dyes were measured using a Tecan Infinite M1000 plate reader. TR-FRET was recorded as the ratio of the fluorescence of the acceptor and the donor dyes (acceptor/donor). The TR-FRET data were analysed using Graphpad Prism software.

PCSK9/LDLR PPI, sequence (Q8NBP7 153-692): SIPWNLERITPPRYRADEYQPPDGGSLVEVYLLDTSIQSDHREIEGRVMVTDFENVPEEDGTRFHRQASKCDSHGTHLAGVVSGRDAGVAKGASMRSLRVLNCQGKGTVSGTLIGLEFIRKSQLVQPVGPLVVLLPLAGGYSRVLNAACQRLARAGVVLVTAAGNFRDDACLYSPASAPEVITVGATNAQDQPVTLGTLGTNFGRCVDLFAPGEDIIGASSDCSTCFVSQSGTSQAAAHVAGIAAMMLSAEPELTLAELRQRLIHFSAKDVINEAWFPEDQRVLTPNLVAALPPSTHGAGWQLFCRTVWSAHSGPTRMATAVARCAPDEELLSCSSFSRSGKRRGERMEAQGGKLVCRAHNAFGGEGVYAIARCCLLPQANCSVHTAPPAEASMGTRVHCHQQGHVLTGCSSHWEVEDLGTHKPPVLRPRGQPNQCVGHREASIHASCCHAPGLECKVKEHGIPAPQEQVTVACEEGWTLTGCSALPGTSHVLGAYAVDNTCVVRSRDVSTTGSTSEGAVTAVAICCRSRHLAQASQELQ
PCSK9/LDLR PPI, sequence (Q8NBP7 31-152 partner limits assumed): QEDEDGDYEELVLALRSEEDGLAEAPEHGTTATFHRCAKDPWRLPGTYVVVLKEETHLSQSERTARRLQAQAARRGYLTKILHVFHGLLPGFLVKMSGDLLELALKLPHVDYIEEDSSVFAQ

SMILES | inhibition at 10 µM (HepG2 cells) | inhibition at 10 µM (PCSK9/LDLR PPI) | IC50 (PCSK9/LDLR PPI; dose-dependent IC50 plot, Figure 3, read-out: PCSK9 IC50 (inhibition of PCSK9/LDLR PPI))
COCc1ccc(C(=O)Nc2cc3c(cc2-c2ccc(C(=O)N4CCN(c5ccccc5OC)CC4)cc2)OCO3)cc1 [C4, 4-(Methoxymethyl)-N-(6-(4-(4-(2-methoxyphenyl)piperazine-1-carbonyl)phenyl)benzo[d][1,3]dioxol-5-yl)benzamide] | 6.77 ± 0.62% | 7.55 ± 0.71% | 
COc1cc(NC(=O)c2ccc(-c3cc4c(cc3NC(=O)c3cccc(C(F)(F)F)c3)OCO4)cc2)cc(OC)c1OC [A11, 3-(Trifluoromethyl)-N-(6-(4-((3,4,5-trimethoxyphenyl)carbamoyl)phenyl)benzo[d][1,3]dioxol-5-yl)benzamide] | 7.97 ± 0.08% | 35.2 ± 3.15% | 
O=C(Nc1ccc2c(c1)OCCO2)c1ccc(-c2cc3c(cc2NC(=O)c2ccc(CCl)cc2)OCO3)cc1 [B12, 4-(Chloromethyl)-N-(6-(4-((2,3-dihydrobenzo[b][1,4]dioxin-6-yl)carbamoyl)phenyl)benzo[d][1,3]dioxol-5-yl)benzamide] | 5.76 ± 0.24% | 5.16 ± 0.2% | 
COCc1ccc(C(=O)Nc2cc3c(cc2-c2ccc(C(=O)N4CCN(c5ccccc5)CC4)cc2)OCO3)cc1 [C6, 4-(Methoxymethyl)-N-(6-(4-(4-phenylpiperazine-1-carbonyl)phenyl)benzo[d][1,3]dioxol-5-yl)benzamide] | 6.15 ± 0.26% | 3.39 ± 1.67% | 
COc1cc(NC(=O)c2ccc(-c3cc4c(cc3NC(=O)c3cc(F)ccc3F)OCO4)cc2)cc(OC)c1OC [A16, 2,5-Difluoro-N-(6-(4-((3,4,5-trimethoxyphenyl)carbamoyl)phenyl)benzo[d][1,3]dioxol-5-yl)benzamide] | 3.33 ± 0.23% | 4.22 ± 0.25% | 
CCCCCc1ccc(NC(=O)c2ccc(-c3cc4c(cc3NC(=O)c3ccc(CCl)cc3)OCO4)cc2)cc1 [B10, 4-(Chloromethyl)-N-(6-(4-((4-pentylphenyl)carbamoyl)phenyl)benzo[d][1,3]dioxol-5-yl)benzamide] | 2.4 ± 0.19% | 5.87 ± 0.01% | 
O=C(Nc1cccc(-c2nc3ccccc3o2)c1)c1ccc(NC(=O)c2cc3ccccc3o2)cc1 [SBC-115337, reference compound] |  |  | 12.9 µM
COc1cc(NC(=O)c2ccc(-c3cc4c(cc3NC(=O)c3ccccc3)OCO4)cc2)cc(OC)c1OC [A3, 4-(6-Benzamidobenzo[d][1,3]dioxol-5-yl)-N-(3,4,5-trimethoxyphenyl)benzamide] | 8.78 ± 0.37% | 5.06 ± 0.09% | 
COc1cc(NC(=O)c2ccc(-c3cc4c(cc3NC(=O)c3ccccc3C(F)(F)F)OCO4)cc2)cc(OC)c1OC [A4, 2-(Trifluoromethyl)-N-(6-(4-((3,4,5-trimethoxyphenyl)carbamoyl)phenyl)benzo[d][1,3]dioxol-5-yl)benzamide] | 7.93 ± 1.04% | 5.28 ± 0.4% | 
CC(C)N1CCN(C(=O)c2ccc(-c3cc4c(cc3NC(=O)c3ccc(CCl)cc3)OCO4)cc2)CC1 [B19, 4-(Chloromethyl)-N-(6-(4-(4-isopropylpiperazine-1-carbonyl)phenyl)benzo[d][1,3]dioxol-5-yl)benzamide] | 8.38 ± 0.81% | 5.82 ± 0.31% | 
COCc1ccc(C(=O)Nc2cc3c(cc2-c2ccc(C(=O)N4CCN(CCc5ccccc5)CC4)cc2)OCO3)cc1 [C5, 4-(Methoxymethyl)-N-(6-(4-(4-phenethylpiperazine-1-carbonyl)phenyl)benzo[d][1,3]dioxol-5-yl)benzamide] | 5.63 ± 0.37% | 5.92 ± 0.32% | 
COc1cc(NC(=O)c2ccc(-c3cc4c(cc3NC(=O)c3cc(F)cc(F)c3)OCO4)cc2)cc(OC)c1OC [A15, 3,5-Difluoro-N-(6-(4-((3,4,5-trimethoxyphenyl)carbamoyl)phenyl)benzo[d][1,3]dioxol-5-yl)benzamide] | 4.63 ± 0.22% | 4.76 ± 0.37% | 
COCc1ccc(C(=O)Nc2cc3c(cc2-c2ccc(C(=O)N4CCN(c5ccc(Cl)cc5)CC4)cc2)OCO3)cc1 [C8, N-(6-(4-(4-(4-chlorophenyl)piperazine-1-carbonyl)phenyl)benzo[d][1,3]dioxol-5-yl)-4-(methoxymethyl)benzamide] | 14.5 ± 1.22% | 25.7 ± 1.2% | 
